We go through two compounds from patent US20140329854A1, “NOVEL HETEROCYCLIC COMPOUNDS USEFUL IN SIRTUIN BINDING AND MODULATION” (SMB Innovation, priority 2011, published 2014).

In brackets after ≈: the same amount, converted by molar mass. Read-outs that look alike come from different tables or passages of the source.

One series concerns the target T1, SIRT1 (Homo sapiens, UniProt Q96EB6).
T1 construct: purchased Cisbio Bioassays
T1 sequence (Q96EB6 1-747): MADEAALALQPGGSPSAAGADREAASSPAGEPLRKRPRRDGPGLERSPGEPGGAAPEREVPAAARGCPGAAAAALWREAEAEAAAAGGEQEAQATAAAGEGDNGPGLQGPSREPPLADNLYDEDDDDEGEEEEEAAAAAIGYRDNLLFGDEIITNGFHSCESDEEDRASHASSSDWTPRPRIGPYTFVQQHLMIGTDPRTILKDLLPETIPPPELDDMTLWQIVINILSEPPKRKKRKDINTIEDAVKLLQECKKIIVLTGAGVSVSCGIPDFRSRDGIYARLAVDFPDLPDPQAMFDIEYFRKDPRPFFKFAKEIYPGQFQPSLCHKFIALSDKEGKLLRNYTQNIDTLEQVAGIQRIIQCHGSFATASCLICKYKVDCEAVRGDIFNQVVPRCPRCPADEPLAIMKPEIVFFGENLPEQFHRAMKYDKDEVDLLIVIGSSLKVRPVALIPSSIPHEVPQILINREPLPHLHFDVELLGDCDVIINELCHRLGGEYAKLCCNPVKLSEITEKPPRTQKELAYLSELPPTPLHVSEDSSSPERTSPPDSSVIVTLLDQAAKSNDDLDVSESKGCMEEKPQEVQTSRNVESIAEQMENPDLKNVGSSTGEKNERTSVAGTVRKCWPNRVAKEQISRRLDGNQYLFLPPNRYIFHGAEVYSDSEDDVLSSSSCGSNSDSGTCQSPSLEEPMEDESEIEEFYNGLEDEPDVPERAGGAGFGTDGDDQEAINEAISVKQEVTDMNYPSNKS
Put plainly: CISBIO HTRF SIRT1 assay of SIRT1 peptide deacetylation, modified by excluding NAD+. Format: biochemical. As to the method: Generally, the CISBIO HTRF® fluorescence enzyme titration assay (Cisbio Bioassays, Cisbio, 135 South Road, Bedford, Mass. 01730, USA) has provided information on inhibition and/or activation of SIRT1 deacetylation of a substrate peptide d2 containing a single acetylated lysine residue and a fluorescence probe/quencher. IC50 and AC50 values have been obtained. The assay was performed in microtiter wells and involved an enzymatic step, wherein 2 μL of the substrate peptide (6 nM) is incubated with 2 μL of SIRT1 enzyme (2.5 ng) and 2 μL of compound solution in DMSO and water. Reaction with anti-acetyl cryptate produces a FRET signal giving maximum signal when no SIRT1 reaction can be detected. The detection step involves quantification of the deacetylation process using an anti-acetyl MAb labeled with Eu^3+ cryptate. The assay was modified by excluding the NAD+ cofactor and using nicotinamide as inhibition control and the compound SRT1720 as activation control. SRT 1720 is described as a SIRT1 activating compound in Pillarisetti, S. (2008).
Protocol for inhibition/activation assay:
After adding all enzymatic step ingredients the mixture is incubated at room temperature at 30 to 60 min. Then the detection reactant is added and incubated at room temperature for 5 hours and on to produce a signal. The fluorescence readout is given as percentage of signal produced with no enzyme reaction.
The cryptate is excited at 337 nm and the fluorescence is measured at 590 nm (cryptate emission wavelength) and 665 nm (d2 emission wavelength). A ratio is calculated (665/590 nm) for each well.
The figures show percentage fluorescence as a function of Log C (log of compound concentration in μM).

Series [1] is described as follows: Measured partition coefficients (MlogD7.4, logP11). The class given is physicochemical. As for the experimental part: Physical properties tPSA and ClogP (calculated lipophilicity octanol/water) were calculated using ChemDraw. Additionally, M log D7.4 (measured partition coefficient at pH 7.4) and log P11 (measured partition coefficient at pH 11) were measured, and all data are shown in Table 7.

The nature of series [2]: Kinetic aqueous solubility. Format: physicochemical. Particulars: phosphate buffer, pH 7.4, aqueous buffer, kinetic from dmso stock; read-out: Measured kinetic solubility.
Series [3] can be described thus: Metabolic stability in rat hepatocytes. Particulars: rat hepatocytes, hepatic intrinsic clearance. Format: in vitro ADME. As to the method:
(§1) Stability of the six compounds in the presence of a drug metabolizing system such as human and rat hepatocytes was measured. Data were reported from the CRO in the format of hepatic intrinsic clearance (CLint) in mL/min/kg. These CLint data were converted using the well-stirred equation
(§2) to a whole body clearance (CLh, hepatic clearance), which is more directly physiologically interpreted (Qh, hepatic blood flow rate, mL/min/kg).

Another series relates to rat hepatocytes. Description: Metabolic stability in rat hepatocytes. Format: in vitro ADME. Particulars: for % Qh (rat): CLh as % of hepatic blood flow; for % Qh (rat) / rat CLh: rat Qh = 55 mL/min/kg; for rat CLh: hepatic clearance from CLint by well-stirred equation. As for the experimental part:
as §1, §2

The nature of series [4]: Metabolic stability in human hepatocytes. Format: in vitro ADME. Particulars: human hepatocytes, hepatic intrinsic clearance; read-out: hu CLint. As to the method: as §1, §2
The next series relates to human hepatocytes. Description: Metabolic stability in human hepatocytes. Format: in vitro ADME. Particulars: for % Qh (human): CLh as % of hepatic blood flow; for % Qh (human) / hu CLh: human Qh = 21 mL/min/kg; for hu CLh: hepatic clearance from CLint by well-stirred equation. As to the method: as §1, §2
In series [5] the test system is human and rat hepatocytes. Description: Stability in cryopreserved hepatocytes (FIG. 7), verbal summary. The class given is in vitro ADME. Particulars: 90 minutes. As to the method: as §1
Another series concerns MDCK-MDR1 cells. An excerpt: MDR1 is the nomenclature for the major efflux transporter P-glycoprotein (P-gp), which is expressed at important anatomical barriers such as blood-brain, small intestine, and tumor cells. The MDCK-MDR model is a polarized cell model over expressing P-gp (i.e. P-gp is expressed on the Apical, or gut lumen, side of the cell) that is capable of actively effluxing small molecule substrates in the B to A direction. […] The compounds were run bidirectionally (Compound added to apical side and flux measured of compound appearing on the basolateral, or blood, side; compound added on basolateral side and flux of compound to apical side measured).

Series [6] can be described thus: Solubility in DMSO stock solution. Particulars: solubility in DMSO before further dilution with water to 1% DMSO.
In series [7] the test system is CYP1A2, CYP2C9, CYP2C19, CYP2D6, CYP3A4. Description: CYP inhibition in human liver microsomes. (Liver microsomes are a subcellular fraction often used to study metabolism.)
The subject of series [8] is CYP1A2, 2C9, 2C19, 2D6, and 3A4. Particulars: microsomes.
Where [9] appears, read: measured partition coefficient at pH 7.4.

Regarding `NC(=O)c1ccc(C(=O)Nc2ccc(O)cc2O)nc1` [Compound 3, 2-N(2,4-dihydroxyphenyl)pyridine-2,5-dicarboxamide], on SIRT1 (average AC50 values, n = 6, read-out: AC50), the AC50 (commonly the midpoint of the concentration-response curve, whichever way the signal moves) is 10 µM. For the same compound, the logD (in general, lipophilicity at a set pH, counting ionised and neutral species) in [1] (setting [9]) stood at 0.8. The logP in [1] (measured partition coefficient at pH 11, read-out: MlogP11) worked out at 1. Also, the kinetic solubility – broadly, the concentration staying in solution when a stock, usually in DMSO, is diluted into the medium – in series [2] lay in the range of 14 to 55 µg/mL (≈ 51.2 to 201 µM). Further, the CLint scaled in series [3] was determined as 53 mL/min/kg. In the series on rat hepatocytes, the “% Qh (rat)” value was found to be 49.1% and the “rat CLh” value came to 27.0 mL/min/kg. In addition, the CLint scaled in series [4] worked out at 83 mL/min/kg. In the series on human hepatocytes, the “% Qh (human)” value was found to be 79.8% and the “hu CLh” value was 16.8 mL/min/kg. In addition, in [5], the “Clearance in hepatocytes (in words)” value is listed as “relatively low clearance” and the “Stability in hepatocytes (in words)” value is on record as “good stability”. Moreover, in the series with MDCK-MDR1 cells, the “Cell permeability (in words)” value was “moderate cell permeability” and the “P-gp mediated efflux (in words)” value is recorded as “no P-gp mediated efflux”. Further, in series [6], the “Concentration of compound in DMSO stock solution” value worked out at 20 mM. For the same compound, in series [7], the IC50 (commonly the point on the concentration scale where inhibition reaches its midpoint) was > 5 µM.

Take `NC(=O)c1ccc(C(=O)Nc2ccc(O)c3ccccc23)cn1` [Compound 11, 5-N(4-hydroxy-1-naphthyl)pyridine-2,5-dicarboxamide]: at SIRT1 (SIRT1 activation, no NAD+ cofactor, average n = 3, read-out: AC50 in μM, average, n = 3), the AC50 was 114 µM. Also, the AC50 at SIRT1 (SIRT1 activation, no NAD+ cofactor, single experiment of FIGS. 1-4, read-out: AC50 in μM, n = 1) came out at 3.3 µM. In addition, the “Modulation of SIRT1 deacetylating activity (in words)” value at SIRT1 (dose response, FIGS. 1-5) was “clear activation”. The compound also had a MlogD7.4 in [1] (setting [9]) of 1.6. Besides, in the series with rat hepatocytes, the “% Qh (rat)” value was 70.7% and the “rat CLh” value is 38.9 mL/min/kg. In addition, the “rat CLint” value in the series with rat hepatocytes (rat hepatocytes, hepatic intrinsic clearance) was 133 mL/min/kg. Moreover, in the series with human hepatocytes, the “% Qh (human)” value came to 60.4% and the “hu CLh” value is 12.7 mL/min/kg. For the same compound, the “hu CLint” value in the series with human hepatocytes (human hepatocytes, hepatic intrinsic clearance) amounted to 32 mL/min/kg. Besides, in [5], the “Clearance in hepatocytes (in words)” value is recorded as “relatively low clearance” and the “Stability in hepatocytes (in words)” value is listed as “good stability”. In addition, in the series on MDCK-MDR1 cells, the “Cell permeability (in words)” value is “moderate cell permeability” and the “P-gp mediated efflux (in words)” value is given as “no P-gp mediated efflux”. For the same compound, the IC50 in series [8] was > 5 µM. Further, the “Concentration of compound in DMSO stock solution” value in series [6] was 20 mM.
